Test results as given in patent US10040838B2, “CRHR2 peptide agonists and uses thereof” (JANSSEN PHARMACEUTICA NV, priority 2008, dated 2018).
Where “and” joins values, the source holds several entries; their conditions need not be identical. Identical values can stand only once. No end group written: not given here.

Legend:
h-CRHR1 = molecular target: T1, h-CRHR1 (Homo sapiens, UniProt P34998); settings: h-CRHR1 transfected HEK-293 cells, approximated from concentration response curves, Hsu et al. 2001; cited from earlier work
T1 sequence (P34998 24-415): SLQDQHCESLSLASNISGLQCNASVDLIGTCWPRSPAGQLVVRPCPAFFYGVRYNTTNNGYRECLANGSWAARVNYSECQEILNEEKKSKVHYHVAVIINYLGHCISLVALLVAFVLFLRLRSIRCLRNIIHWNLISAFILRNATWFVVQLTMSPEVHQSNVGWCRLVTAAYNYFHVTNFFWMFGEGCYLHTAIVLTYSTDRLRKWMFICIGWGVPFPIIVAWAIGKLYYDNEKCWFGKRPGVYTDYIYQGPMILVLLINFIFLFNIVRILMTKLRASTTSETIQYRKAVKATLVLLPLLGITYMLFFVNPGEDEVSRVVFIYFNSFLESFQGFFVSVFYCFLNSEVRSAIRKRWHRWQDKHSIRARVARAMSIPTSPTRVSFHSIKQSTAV

CRHR1 [1] = molecular target: T2, CRHR1 (Homo sapiens, UniProt P34998); test: cAMP assay in h-CRHR1 transfected SK-N-MC cells; assay type: cell-based; design: expressed in transfected cells; settings: for Experimental nH: Table 11, Hill slope
T2 sequence (P34998 24-415): T1 sequence (P34998 24-415)
Experimental: Human CRHR1 (accession number X72304) or CRHR2 (accession number U34587) were cloned into pcDNA3.1/Zeo expression vector and stably transfected into SK-N-MC cells by electroporation. Cells were maintained in MEM w/Earl's Salt with 10% FBS, 50 I.U. penicillin, 50 μg/ml streptomycin, 2 mM L-glutamine, 1 mM sodium pyruvate and 0.1 mM nonessential amino acids, 600 μg/ml G418. Cells were grown at 37° C. in 5% CO2.
Cells were plated in 96-well tissue culture dishes (Biocoat from BD Biosciences) overnight at 50,000 cell/well. Cells were washed with PBS then resuspended in DMEM F-12 without phenol red, containing 10 μM isobutylmethylxanthine (IBMX). Cells were incubated with the peptides at concentrations ranging from 1 pM to 10 μM for 60 min at 37° Celsius. […] Forskolin (10 μM), a direct stimulant of adenylate cyclase, was used as positive control. The assays were stopped by the addition of 0.5 M HCl and mixing by orbital rotation for 2 h at 4° Celsius.
Transfected SK-N-MC cells were plated in 96-well Biocoat tissue culture dishes (BD Biosciences, San Jose, Calif., U.S.A) overnight at 50,000 cell/well. […]
Individual agonist concentration-response curve data were fitted to the Hill equation, see formula below, using GraphPad Prism (Graphpad Software, La Jolla, Calif., U.S.A.), to provide estimates of agonist concentration needed to generate one-half maximal response (A50), and the maximal asymptote (α) and Hill slope (nH) parameters. In this equation, [A] is the agonist concentration and E is the measured effect:
For display purposes the mean fitted parameter estimates were used to generate a single E/[A] curve shown superimposed on the mean experimental data. Potency estimates for agonists, pA50, are expressed as the negative logarithm of the midpoint of each curve and listed with their standard error of measurement (SEM).
Human and rat peptides (see Table 10) were used on the stimulation of h-CRHR1 or h-CRHR2 transfected SK-N-MC cells in the cAMP flash plate assay. […] Curves were calculated using non-linear regression sigmoidal concentration-response analysis calculation in GraphPad Prism.

h-CRHR2b = molecular target: T3, h-CRHR2b (Homo sapiens, UniProt Q13324); settings: h-CRHR2b transfected HEK-293 cells, approximated from concentration response curves, Hsu et al. 2001; cited from earlier work
T3 sequence (Q13324 1-438 isoform Q13324-2): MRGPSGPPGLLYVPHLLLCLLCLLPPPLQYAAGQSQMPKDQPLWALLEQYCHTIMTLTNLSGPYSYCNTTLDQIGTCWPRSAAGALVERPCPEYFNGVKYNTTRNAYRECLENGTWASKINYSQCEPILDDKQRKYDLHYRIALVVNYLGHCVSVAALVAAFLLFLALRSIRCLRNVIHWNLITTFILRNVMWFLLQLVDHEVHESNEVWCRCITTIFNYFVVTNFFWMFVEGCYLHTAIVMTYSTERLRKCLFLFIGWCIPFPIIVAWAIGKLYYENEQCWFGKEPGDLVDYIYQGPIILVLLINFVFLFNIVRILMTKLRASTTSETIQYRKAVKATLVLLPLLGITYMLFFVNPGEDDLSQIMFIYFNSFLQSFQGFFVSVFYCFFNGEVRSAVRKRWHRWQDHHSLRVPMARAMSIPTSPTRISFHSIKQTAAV

CRHR1 [2] = molecular target: T2, CRHR1; test: Radioligand binding CRHR1 assay, [125I]-(Tyr0)-sauvagine; design: expressed in transfected cells; host or cells: cell membranes; settings: Table 15; slope of competition curve
Experimental: The solution was then homogenized with a Polytron tissue grinder at a setting of 10 and 7×3 s (Brinkmann Instruments, Westbury, N.Y.). The homogenate was centrifuged at 4° Celsius at 800×g for 5 min with the pellet being discarded. […] All binding assays were conducted in 96-well Multiscreen GF/B filter plates (Millipore, Billericay, Mass., U.S.A.) that were pre-soaked in assay buffer with 0.3% PEI for 1 hour. […] The bound radioactivity was separated by filtration using a Multiscreen Resist manifold (Millipore Corp., Billerica, Mass., U.S.A). The filters were washed three times with ice-cold PBS at pH 7.5 and radioactivity retained on the filters was quantified by its liquid scintillation measured by a TopCount counter (Packard BioScience, Boston, Mass., U.S.A). All experiments were performed in triplicate.

[3] = test system: isolated rat aortic rings; test: Vascular smooth muscle relaxation, isolated rat aortic rings pre-contracted with phenylephrine
From the text: The ability of h-SCP (SEQ ID NO:1) to relax vascular smooth muscle was examined in isolated, rat aortic rings pre-contracted with phenylephrine (PE) (see FIG. 6). […] The responses caused by h-SCP (SEQ ID NO:1) were inhibited by anti-sauvagine-30 (SEQ ID NO:118).

Compound	Published pA50 (h-CRHR1)	Experimental nH (CRHR1 [1]; listed as h-SRP)	Published pA50 (h-CRHR2b)	CRHR1 nH (CRHR1 [2])	pA50 relaxation ([3]; rat aortic rings pre-contracted with phenylephrine)	fold less potent than h-UCN2 ([3]; relaxation of rat aortic rings)	Experimental nH (CRHR1 [1])	Experimental αmax (CRHR1 [1]; Table 11, maximal asymptote)
HPGSRIVLSLDVPIGLLQILLEQARARAAREQATTNARILARV-NH2 [SEQ ID NO: 117, HPGSRIVLSLDVPIGLLQILLEQARAPAAREQATTNARILARV-NH2, reference compound]	>7^3	1.61 and 1.33 and 1.26	~9^4	–	–	–	–	–
TKFTLSLDVPTNIMNLLFNIAKAKNLRAQAAANAHLMAQI-NH2 [SEQ ID NO: 1, TKFTLSLDVPTNIMNLLFNIAKAKNLRAQAAANAHLMAQI-NH2, reference compound]	–	–	~9^4	1.16 ± 0.65	6.05±0.12	10 fold	–	–
CC[C@H](C)[C@H](NC(=O)[C@H](CO)NC(=O)[C@H](CC(C)C)NC(=O)[C@@H]1CCCN1C(=O)[C@@H]1CCCN1C(=O)[C@H](CC(=O)O)NC(=O)[C@@H](N)CC(=O)O)C(=O)N[C@@H](CC(=O)O)C(=O)N[C@@H](CC(C)C)C(=O)N[C@H](C(=O)N[C@@H](Cc1ccccc1)C(=O)N[C@@H](Cc1c[nH]cn1)C(=O)N[C@@H](CC(C)C)C(=O)N[C@@H](CC(C)C)C(=O)N[C@@H](CCCNC(=N)N)C(=O)N[C@H](C(=O)N[C@@H](CC(C)C)C(=O)N[C@@H](CC(C)C)C(=O)N[C@@H](CCC(=O)O)C(=O)N[C@@H](CC(C)C)C(=O)N[C@@H](C)C(=O)N[C@@H](CCCNC(=N)N)C(=O)N[C@H](C(=O)N[C@@H](CCC(N)=O)C(=O)N[C@@H](CO)C(=O)N[C@@H](CCC(N)=O)C(=O)N[C@@H](CCCNC(=N)N)C(=O)N[C@@H](CCC(=O)O)C(=O)N[C@@H](CCCNC(=N)N)C(=O)N[C@@H](C)C(=O)N[C@@H](CCC(=O)O)C(=O)N[C@@H](CCC(N)=O)C(=O)N[C@@H](CC(N)=O)C(=O)N[C@@H](CCCNC(=N)N)C(=O)N[C@H](C(=O)N[C@H](C(=O)N[C@@H](Cc1ccccc1)C(=O)N[C@@H](CC(=O)O)C(=O)N[C@@H](CO)C(=O)N[C@H](C(N)=O)C(C)C)[C@@H](C)CC)[C@@H](C)CC)[C@@H](C)O)[C@@H](C)O)[C@@H](C)O [SEQ ID NO: 114, DDPPLSIDLTFHLLRTLLELARTQSQRERAEQNRIIFDSV-NH2]	–	–	–	0.91 ± 0.27	–	–	1.15	99.61
